Experimental data taken from paper PMC10962247 (Science translational medicine, 2024).

Target: T1, Glycogen synthase 1 (GYS1) (Homo sapiens, UniProt P13807)
T1 sequence (P13807 1-737): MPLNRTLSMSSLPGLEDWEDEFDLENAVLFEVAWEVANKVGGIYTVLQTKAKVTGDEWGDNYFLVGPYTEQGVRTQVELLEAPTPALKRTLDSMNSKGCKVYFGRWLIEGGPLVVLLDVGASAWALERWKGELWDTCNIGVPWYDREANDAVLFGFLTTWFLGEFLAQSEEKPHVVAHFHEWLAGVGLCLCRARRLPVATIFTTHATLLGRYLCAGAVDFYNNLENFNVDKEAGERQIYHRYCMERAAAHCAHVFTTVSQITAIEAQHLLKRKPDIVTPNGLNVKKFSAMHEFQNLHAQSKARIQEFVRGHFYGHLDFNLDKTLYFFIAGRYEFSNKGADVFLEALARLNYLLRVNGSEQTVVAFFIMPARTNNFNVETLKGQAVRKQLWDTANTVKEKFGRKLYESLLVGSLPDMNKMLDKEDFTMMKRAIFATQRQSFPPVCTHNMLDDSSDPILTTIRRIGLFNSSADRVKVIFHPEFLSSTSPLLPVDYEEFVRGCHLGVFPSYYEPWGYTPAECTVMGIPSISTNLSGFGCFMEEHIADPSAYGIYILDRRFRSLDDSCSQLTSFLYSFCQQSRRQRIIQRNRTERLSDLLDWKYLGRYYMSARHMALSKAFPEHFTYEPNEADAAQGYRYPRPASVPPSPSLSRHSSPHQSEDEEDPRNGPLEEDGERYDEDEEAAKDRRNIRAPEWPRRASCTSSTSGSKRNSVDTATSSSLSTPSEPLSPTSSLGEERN
T1 sequence (P46976 2-350 partner): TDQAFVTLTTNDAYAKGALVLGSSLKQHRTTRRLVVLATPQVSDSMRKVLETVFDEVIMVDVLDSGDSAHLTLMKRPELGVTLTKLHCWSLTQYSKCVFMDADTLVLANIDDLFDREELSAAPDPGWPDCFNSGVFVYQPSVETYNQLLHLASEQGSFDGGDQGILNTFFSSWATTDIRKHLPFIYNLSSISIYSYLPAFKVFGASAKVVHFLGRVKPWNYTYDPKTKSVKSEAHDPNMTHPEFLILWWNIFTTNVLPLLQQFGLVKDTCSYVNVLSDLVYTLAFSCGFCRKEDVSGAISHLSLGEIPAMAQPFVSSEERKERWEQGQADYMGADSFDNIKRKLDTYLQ
Assay: PK/LDH coupled enzyme assay with recombinant GYS1 in the presence of G6P
Format: biochemical

IC50: 41 nM
Structure (SMILES): CC(C)c1ccc([C@@H](NC(=O)[C@@H]2C[C@@H](F)CN2C(=O)Cc2cn[nH]n2)c2ccccc2)cc1 [MZ-101]
